Data from US6969590B2, “Use of a polypeptide for treatment of pruritus in animals” (Zengen, Inc., priority 2001, dated 2005).
Entries after “also recorded” stand apart in the source; their conditions may differ.

Columns and labels:
[1] = system: C. albicans; assay: C. albicans colony forming units (candidacidal activity); format: cell-based
Procedure: C. albicans (1×10^6/ml in HBSS) was incubated in the presence or absence or α-MSH (1-13) or α-MSH (11-13) at concentrations in the range of 10^−15 M to 10^−6 M for 2 hours at 37° C. Cells were then washed in cold distilled water and diluted with HBSS to a concentration of 100 organisms/ml. One-ml aliquots were dispensed on blood agar plates and incubated for 48 hours at 37° C. Organism viability was estimated from the number of colonies formed. In subsequent experiments using familiar procedures we compared activity of α-MSH (4-10), α-MSH (6-13), α-MSH (11-13), ACTH (1-39), (18-39) and fluconazole, the latter an established antifungal agent. Melanocortin peptides and fluconazole were tested in concentrations of 10^−6 M to 10^−4 M. There were at least six replicates for each concentration of peptide.

[2] = system: edema caused by intradermal injection of human recombinant IL-1β in the mouse ear; assay: Ear edema by intradermal recombinant human IL-1β; format: in vivo, BALB/c mice; details: centrally administered peptide, propranolol injected centrally
Procedure: Female BALB/c mice (Simonsen Laboratories, Gilroy, Calif.), 7-8 weeks old, were housed at 23-25° C. in groups not exceeding five animals per cage [28 cm (L)×18 cm (W)×13 cm (H)]. Before the experiments they were acclimatized for not less than 1 week before experimentation to standard lighting and temperature conditions with food and water freely available.
Mice were anesthetized with 10% pentobarbital sodium solution (1 mg/mouse, 50 mg/ml, Nembutal sodium solution; Abbott Laboratories, North Chicago, Ill.). Baseline ear thickness measurements were taken with a spring-loaded micrometer (Swiss Precision Instruments, Los Angeles, Calif.). Ear thickness was expressed in cubic centimeters and was measured at least twice at each time point. The average thickness of unstimulated ears was […]. Inflammation was induced by intradermal injection of 20 μl of recombinant human IL-1β (1500 U; Genzyme, Cambridge, Mass.) in one ear of each mouse using a 28 gauge needle (Hiltz et al., 1992). Measures of ear thickness were repeated 4 and 6 hr later, while the mice were under sodium pentobarbital anesthesia. Edema was assessed by subtracting baseline measures from 4 and 6 hr readings for each animal. α-MSH (11-13) (1663.9 gm/mol; Peninsula Laboratories, Belmont, Calif.) or α-MSH (11-13) (383.48 gm/mol; Peninsula Laboratories) dissolved in saline was injected intracerebroventricularly (20 μl) using procedures described previously (Lipton et al., 1991; Lipton and Catania, 1993).
Several agents were administered at the time of ear challenge to pharmacologically block certain receptors: atropine (Sigma Chemical Co.; 150 μg i.p.), a muscarinic receptor blocker that acts on autonomic end-organ receptors, was chosen because of links between inflammation and modulation of pain and the finding that muscarinic antagonists increase pain threshold (Hartvig et al., 1989); phentolamine (Sigma; 150 μg i.p.) an agent that competes for occupancy of α-adrenergic receptors; propranolol (Sigma; 150 μg, i.p.; 30 μg, i.c.v.), a nonspecific competitive antagonist for β-adrenergic receptors.
Because of the size of the experiments and the requirement for several shipments of animals over time, several experiments were performed, each with complete treatment and control groups drawn from the same shipment of mice. Omnibus analysis of variance techniques (Dynastat, Washington, D.C.) were used to test overall differences among group means. Tukey's protected t test was used to compare individual means. Probability values of <0.05 were considered significant.

[3] = system: NO2^−; assay: Nitrite (NO) production by activated N9 microglia; format: cell-based, murine; details: microglia stimulated with LPS+IFN-γ for 24 hr, micromolar concentrations
Procedure: (§1) The N9 clone of murine microglial cells was obtained by immortalization of embryonic brain cultures with the 3RV retrovirus carrying an activated v-myconcogene. N9 cells were cultured in T-75-cm^2 culture flasks (Corning, Cambridge, Mass.) and maintained at 37° C. in a humidified incubator under 5% CO2 atmosphere in RPMI 1640 supplemented with 2 mM L-glutamine, 50 U/mL penicillin G, 50 μg/mL streptomycin sulfate (GIBCO-BBL, Paisley, UK), and 10% heat-inactivated fetal bovine serum (FBS, Hyclone Lab, Inc., Logan, Utah) until experiments were performed. Cells were used between the first and the tenth passage.
(§2) Sub-confluent microglial cells were washed twice with phosphate-buffered saline (PBS) and incubated with trypsin 0.025% and ethylenediaminetetraacetate (EDTA) 0.02% without calcium and magnesium for 3 min. at 37° C. to detach the cells from the culture flask. Cells were then resuspended in medium and incubated in 24-well tissue-culture plates at a concentration of 2×10^5 cells/mL for 16 h in a humidified incubator (37° C., 5% CO2). Growth medium was removed and cell monolayers were stimulated with 10 ng/mL lipopolysaccharide (LPS, from Escherichia coli 055:B5, Sigma Chemical Co., St. Louis, Mo.) plus 1 U/ml, murine IFN-γ (Sigma). To test effects of melanocortin peptides, concentrations (1, 10, 25, 50 and 100 μM) of α-MSH (1-13), α-MSH (11-13), and ACTH (1-24) (Sigma) were dissolved in medium and added to wells 10 min before treatment with LPS+IFN-γ. […] Viability of cells was assessed by trypan blue exclusion for each experimental condition; it was consistently >98%. […]
NO is rapidly oxidized to nitrite (NO2) in culture medium, and nitrite concentration is an indicator of NO production. […] Samples were incubated at room temperature for 10 min and absorbency was measured at 540 nm with the use of a microplate reader. Nitrite concentrations were calculated using a sodium nitrite standard curve.
(§3) Effects of melanocortin peptides on cytokine and NO production were evaluated by repeated measures analysis of variance followed by Dunnet's test for specific comparisons. […]

[4] = system: TNF-α; assay: TNF-α production by activated N9 microglia; format: cell-based, murine; details: microglia stimulated with LPS+IFN-γ for 24 hr, micromolar concentrations
Procedure: as §1, §2
TNF-α bioactivity was measured in supernatants of cell cultures by standard cytotoxicity assay using L929 cells and recombinant human TNF-α (Sigma) as standard. […] IL-6 was measured using a commercial murine enzyme-linked immunosorbent assay (ELISA: RPN 2714, Amersham, Little Chalfont, UK).
as §3

Sequence: SYSMEHFRWGKPV [α-MSH (1-13)]
- relative potency in reducing C. albicans viability ([1]; 10^−4M melanocortin peptides): the most effective
- effect on C. albicans colony forming units (CFU) ([1]; 2 hours at 37° C., vs. control): greatly reduced; also recorded: significantly decreased C. albicans colony forming units; also recorded: inhibitory effect
- inhibition of ear edema ([2]; 4 hr): 36%
- inhibition of ear edema ([2]; 6 hr): 32%
- reduction of production of NO2^− [3]: 42%
- reduction of production of TNF-α [4]: 43%
